Data taken from publication PMC8433497, “DNA-encoded chemistry technology yields expedient access to SARS-CoV-2 M^pro inhibitors” (Proceedings of the National Academy of Sciences of the …, 2021).
“Also recorded” adds a separate entry of the source. Read-outs that look alike come from different tables or passages of the source.

What was measured:
[1] = system: SARS-CoV-2 (USA_WA1/2020 isolate); assay: RTCA assay for in vitro inhibition of SARS-CoV-2 replication in VERO E6 cells; assay type: cell-based; conditions: live SARS-CoV-2, 75 h
SARS-CoV-2 M^pro-His6 = SARS-CoV-2 M^pro-His6 (Severe acute respiratory syndrome coronavirus 2, UniProt P0DTD1); assay: M^pro-His6 enzyme inhibition assay, fluorescent peptide reporter; assay type: biochemical; conditions: for M^pro inhibitory activity (in words): analogs compared with CDD-1713
SARS-CoV-2 M^pro = SARS-CoV-2 M^pro (Severe acute respiratory syndrome coronavirus 2, UniProt P0DTD1); assay: M^pro (His tag removed) enzyme inhibition assay, fluorescent peptide reporter; assay type: biochemical; conditions: Table S1, 25 nM enzyme, 15 µM fluorescent peptide, Morrison equation, SE from triplicates
[2] = Metabolic stability in human liver microsomes; assay type: in vitro ADME; conditions: for half-life at 2 μM: 0.5 mg protein/ml, 2.0 uM compound, 1.0 mM NADPH, read-out: HLM t1/2
Description: (§1) The samples were collected at specific time points, 0, 30, and 60 min, in duplicate. The reactions were terminated by adding an equivalent volume of ice-cold methanol and vortexed. […] Three microliters […] of the supernatant was analyzed by UHPLC-Q Exactive Orbitrap MS (Thermo Fisher Scientific) equipped with 50-mm × 4.6-mm column (XDB C-18; Agilent Technologies). The column temperature was maintained at 40 °C. The flow rate was at 0.3 mL/min with a 30% mobile phase (acetonitrile containing 0.1% formic acid). Q Exactive MS was operated in positive mode with electrospray ionization. Ultrapure nitrogen was applied as the sheath (45 arbitrary units), auxiliary (10 arbitrary units), sweep (1.0 arbitrary unit), and the collision gas. […] Mass Spectrometry (MS) data were acquired from 80 to 1,200 Da in profile mode.

[3] = Metabolic stability in mouse liver microsomes; assay type: in vitro ADME; conditions: for half-life at 2 μM: 0.5 mg protein/ml, 2.0 uM compound, 1.0 mM NADPH, read-out: MLM t1/2
Description: as §1

[4] = system: SARS-CoV-2 main protease (M^pro); assay: Protein thermal shift stability assay (thermofluor); assay type: binding; conditions: 1.5 μM protease, various compound concentrations, SYPRO Orange
Description: The dye SYPRO Orange (Thermo Fisher Scientific) was used to perform the protein thermal shift assay. The assay was set up on a 384-well Roche plate where the SARS-CoV-2 main protease at a concentration of 1.5 μM was incubated with the test compound at various concentrations and SYPRO Orange dye at 5× in a 10 μL reaction. The melting curve experiment and data analysis were run on a Roche Lightcycler 480 real-time PCR instrument.

[5] = Plasma stability assay, mouse plasma; assay type: in vitro ADME; conditions: 10 µM, 37 °C, after 2-h incubation
Description: (§2) Compound CDD-1713 and CDD-1976 were incubated in human and mouse plasma, respectively, at a concentration of 10 µM in duplicate (n = 2) at 37 °C. At time points of 0, 30, 60, and 120 min, 15 µL of sample were taken out and the reactions terminated by adding 75 µL of ice-cold methanol. The reaction mixtures were then vortexed for 30 s and centrifuged at rcf 15,000 for 15 min. Following centrifugation, 3 μL of the supernatant was analyzed using UHPLC-Q Exactive Orbitrap MS. The percentage of test compound remaining at the individual time points relative to the 0-min sample was then determined.

HepG2 cells [6] = assay: HepG2 cytotoxicity assay (XTT); assay type: cell-based; conditions: 24 h
Description: (§3) The HepG2 cells maintained in DMEM (containing 1 g/L glucose, 10% fetal bovine serum [FBS], and 1% penicillin/streptomycin) were seeded in a 12-well plate (a final density of 5 × 10^5 per well) for cell uptake assay and 96-well plate for cytotoxicity assay (a final density of 5 × 10^4 per well). The plate was incubated at 37 °C for 24 h.
(§4) The cells in 96-well plate were treated by CDD-1713 or CDD-1976 at the final concentrations of 0, 10, 20, 50, or 100 μM (n = 3 replicates per concentration level per drug). After 24-h incubation at 37 °C, the medium in the plate was decanted and 100 μL of Dulbecco’s modified Eagle’s medium (DMEM) (without phenol red) was added into each well. The cell variability was measured using XTT method. The absorbance at 475 nm was read with a Tecan M1000 pro machine, with a reference wavelength of 660 nm. The reading was normalized by vehicle with final 0.5% dimethyl sulfoxide (DMSO) for each drug.

[7] = HepG2 cytotoxicity assay (XTT); assay type: cell-based; conditions: human, HepG2 cells, 100 µM group, XTT, normalized to DMSO, read-out: HepG2 cell viability
Description: as §3, §4

[8] = Plasma stability assay, human plasma; assay type: in vitro ADME; conditions: 10 µM, 37 °C, after 2-h incubation
Description: as §2

HepG2 cells [9] = assay: HepG2 cell uptake assay; assay type: in vitro ADME; conditions: 10 μM, 2 h, 37 °C
Description: as §3
The cells in 12-well plate were treated with CDD-1713 or CDD-1976 (final concentration: 10 μM). The plate was incubated at 37 °C for another 2 h. The medium in the plate was decanted and the cells were rinsed with 1 mL of 1× DPBS three times, then 0.5 mL of 0.25% trypsin was added to each well and incubated for 3.5 min (at 37 °C). One milliliter of complete medium was added to each well to quench the reaction. After spinning at 350 × g for 5 min, the cell pellet was reconstituted in MeOH/H2O (vol/vol 1/1) and CDD-1713 or CDD-1976 was extracted from 100 μL of the resulting mixture with 100 μL of ice-cold methanol. The mixtures were centrifuged at rcf 15,000 for 15 min. Three microliters of the supernatant was analyzed by UHPLC-Q Exactive Orbitrap MS (Thermo Fisher Scientific) equipped with a 50-mm × 4.6-mm column (XDB C-18; Agilent Technologies). The column temperature was set at 40 °C. Ultrapure nitrogen was applied as the sheath (45 arbitrary units), auxiliary (10 arbitrary units), sweep (1.0 arbitrary unit), and the collision gas. […]

[10] = Table S1, 25 nM enzyme, 15 µM fluorescent peptide, Morrison equation, SE from triplicates
[11] = read-out: Ki against M^pro (Fig. 2; Fig. 2B M^pro-His-tag), 25 nM enzyme, 15 µM fluorescent peptide, Morrison equation, inactive = less than 90% inhibition at 25 µM
[12] = read-out: Mpro-His Ki, Table S1, 25 nM enzyme, 15 µM fluorescent peptide, Morrison equation, SE from triplicates

## COc1cc(-c2cccc3c2cnn3C)cc(C=O)c1OCC(=O)N(C)C [CDD-1847]
[1]
  effect on SARS-CoV-2 induced cell death (in words): unable to prevent cell death
[1]; duplicates
  IC50, SARS-CoV-2 induced cell death (normalized cell index, RTCA): inactive
SARS-CoV-2 M^pro-His6; [10]
  Mpro-His Ki: Inactive
SARS-CoV-2 M^pro-His6
  M^pro inhibitory activity (in words): completely lost activity
SARS-CoV-2 M^pro
  Mpro Ki: Inactive

## Cc1nnc2n1-c1ccc(Cl)cc1C(c1ccccc1)=NC2 [Alprazolam, reference compound]
[2]
  half-life at 2 μM: 13.9 h
[3]
  half-life at 2 μM: 4.93 h

## CCOC(=O)/C=C/c1cc(-c2cccc3[nH]ncc23)cc(OC)c1OCC(=O)N(C)C [CDD-1971]
SARS-CoV-2 M^pro-His6; [10]
  Mpro-His Ki: Inactive
SARS-CoV-2 M^pro
  Mpro Ki: Inactive

## CN(C)C(=O)COc1ccc(-c2cccc3[nH]ncc23)cc1C=O [CDD-1976]
[4]
  stabilization of M^pro (temperature shift): stabilized; also recorded: concentration-dependent stabilization; also recorded: most pronounced temperature shift
[1]
  effect on SARS-CoV-2 induced cell death (in words): reduced cell death in a dose-dependent manner
[2]
  metabolic stability in human liver microsomes (in words): more stable
  half-life at 2 μM: 0.69 h
[5]
  compound remained in mouse plasma: 80%
SARS-CoV-2 M^pro-His6
  Ki: 0.037 µM
  M^pro inhibitory activity (in words): better inhibition compared to CDD-1713
SARS-CoV-2 M^pro-His6; [11]
  Ki: 0.037 ± 0.004 µM
SARS-CoV-2 M^pro-His6; [12]
  Ki: 0.037 ± 0.004 µM
[3]
  metabolic stability in mouse liver microsomes (in words): more stable in human liver microsomes, but not mouse
  half-life at 2 μM: 0.17 h
HepG2 cells [6]; 100 μM
  cytotoxicity in HepG2 cells (in words): no obvious cytotoxicity
HepG2 cells [6]; Homo sapiens, HepG2, XTT assay, read-out: IC50, HepG2 cell viability
  IC50: > 100 µM
[7]
  viability at 24 h, 100 µM: > 80%
[8]
  compound remained in human plasma: 80%
HepG2 cells [9]
  cell permeability in uptake assay of HepG2 cells: moderate cell permeability

## COc1cc(-c2cccc3[nH]ncc23)cc(C(C)=O)c1OCC(=O)N(C)C [CDD-1883]
SARS-CoV-2 M^pro-His6; [10]
  Mpro-His Ki: Inactive
SARS-CoV-2 M^pro
  Mpro Ki: Inactive

## COc1cc(-c2cccc3[nH]ncc23)cc(CO)c1OCC(=O)N(C)C [CDD-1776]
SARS-CoV-2 M^pro-His6; [10]
  Mpro-His Ki: Inactive
SARS-CoV-2 M^pro-His6
  M^pro inhibitory activity (in words): completely abolished the activity
SARS-CoV-2 M^pro
  Mpro Ki: Inactive

## CN(C)C(=O)COc1ccc(-c2cccc3[nH]ncc23)cc1C#N [CDD-2038]
SARS-CoV-2 M^pro-His6; [10]
  Mpro-His Ki: Inactive
SARS-CoV-2 M^pro
  Mpro Ki: Inactive

## COc1cc(-c2cccc3[nH]ncc23)cc(C(=O)CO)c1OCC(=O)N(C)C [CDD-1886]
SARS-CoV-2 M^pro-His6; [10]
  Mpro-His Ki: Inactive
SARS-CoV-2 M^pro
  Mpro Ki: Inactive

## COc1cc(-c2cccc3[nH]ncc23)cc(C=O)c1OCC(=O)N1CCC(Oc2cccc(C(=O)N(C)C)c2)C1 (stereo not drawn) [CDD-1714]
[4]
  stabilization of M^pro (temperature shift): stabilized; also recorded: concentration-dependent stabilization
SARS-CoV-2 M^pro-His6
  Ki: 0.02 µM
SARS-CoV-2 M^pro-His6; [11]
  Ki: 0.02 ± 0.003 µM
SARS-CoV-2 M^pro-His6; [12]
  Ki: 0.02 ± 0.003 µM
SARS-CoV-2 M^pro; read-out: Mpro Ki
  Ki: 0.024 ± 0.003 µM

## COc1cc(-c2cccc3[nH]ncc23)ccc1OCC(=O)N(C)C [CDD-1793]
SARS-CoV-2 M^pro-His6; [10]
  Mpro-His Ki: Inactive
SARS-CoV-2 M^pro-His6
  M^pro inhibitory activity (in words): completely abolished the activity
SARS-CoV-2 M^pro
  Mpro Ki: Inactive
